The subject of one test is GP2d cells (KRAS G12D). In words: Cell-based pERK HTRF assay in GP2d cell (Biological Example 2). Particulars: GP2d, GP2d (KRAS G12D) cells, pERK HTRF. The gist of the method: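 60 min compound, 0.25% DMSO, 9-pt half-log curve from 1 μM or 100 nM; DMEM/10% FBS.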
For orientation: In TR-FRET formats the signal depends on donor and acceptor labels being close together.

For test [1], the target named is T1, Avi-KRAS G12D (1-169) GppNHp/RAF1 RBD-3xFLAG (52-151) (Homo sapiens, UniProt P01116, G12D).
T1 construct: Avi-KRAS G12D (1-169)
As to the kind of experiment: Raf1-KRAS G12D-GppNHP disruption HTRF assay (Biological Example 1). In kind it is binding. The note with it: KRAS G12D, GppNHp-loaded; Table 11. The gist of the method:
(§1)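 Measured with a KRAS/RAF1 HTRF assay at pH 7.5 in 10% DMSO, with two 1 h room-temperature incubations with shaking.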

Test [2] deals with T2, Avi-KRAS G12V (1-169) GppNHp/RAF1 RBD-3xFLAG (52-151) (Homo sapiens, UniProt P01116, G12V).
T2 construct: Avi-KRAS G12V (1-169)
As to the kind of experiment: Raf1-KRAS G12V-GppNHP disruption HTRF assay (Biological Example 1). The test is classed as binding. Particulars: KRAS G12V, GppNHp-loaded; Table 11. The procedure, abridged: as §1

The target in test [3] is T3, Avi-KRAS G12R (1-169) GppNHp/RAF1 RBD-3xFLAG (52-151) (Homo sapiens, UniProt P01116, G12R).
T3 construct: Avi-KRAS G12R (1-169)
In words: Raf1-KRAS G12R-GppNHP disruption HTRF assay (Biological Example 1). In kind it is binding. The note with it: KRAS G12R, GppNHp-loaded; Table 11. The procedure, abridged:
as §1

Test [4] deals with T4, Avi-KRAS WT (1-169) GppNHp/RAF1 RBD-3xFLAG (52-151) (Homo sapiens, UniProt P01116).
T4 construct: Avi-KRAS WT (1-169)
In words: Raf1-KRAS WT-GppNHP disruption HTRF assay (Biological Example 1). In kind it is binding. The note with it: KRAS WT, GppNHp-loaded; Table 11. The gist of the method: as §1

We go through 20 compounds from US20260042764A1, “COMPOSITIONS AND METHODS FOR INHIBITION OF KRAS” (TheRas, Inc., priority 2022, published 2026).

T2 sequence (P01116 1-169 isoform P01116-2 G12V): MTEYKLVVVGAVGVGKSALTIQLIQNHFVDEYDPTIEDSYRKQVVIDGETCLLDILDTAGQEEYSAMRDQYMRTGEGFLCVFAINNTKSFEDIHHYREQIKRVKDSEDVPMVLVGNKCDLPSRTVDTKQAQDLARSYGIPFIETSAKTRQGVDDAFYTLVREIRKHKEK
T1 sequence (P01116 1-169 isoform P01116-2 G12D): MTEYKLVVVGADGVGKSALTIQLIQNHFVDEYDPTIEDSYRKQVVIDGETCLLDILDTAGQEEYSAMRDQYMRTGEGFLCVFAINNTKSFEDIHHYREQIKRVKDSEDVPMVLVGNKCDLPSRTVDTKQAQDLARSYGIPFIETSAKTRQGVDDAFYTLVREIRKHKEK
T3 sequence (P01116 1-169 isoform P01116-2 G12R): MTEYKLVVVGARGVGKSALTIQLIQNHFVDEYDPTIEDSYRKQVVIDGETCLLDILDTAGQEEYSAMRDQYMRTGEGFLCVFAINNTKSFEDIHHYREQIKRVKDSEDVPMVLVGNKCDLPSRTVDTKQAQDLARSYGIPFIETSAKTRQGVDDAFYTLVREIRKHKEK
T4 sequence (P01116 1-169 isoform P01116-2): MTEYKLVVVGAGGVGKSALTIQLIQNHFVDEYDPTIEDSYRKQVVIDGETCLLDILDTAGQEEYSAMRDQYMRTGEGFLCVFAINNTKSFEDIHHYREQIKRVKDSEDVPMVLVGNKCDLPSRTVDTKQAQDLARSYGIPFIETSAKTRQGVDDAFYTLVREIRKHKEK

As usually defined, the IC50 is the concentration needed to halve the response being measured. Read a high IC50 as weaker potency. For the compound `CN(c1nc(OC[C@@]23CCCN2C[C@H](F)C3)nc2c(F)c(-c3ccc(F)c4sc(N)c(C#N)c34)c(C(F)(F)F)cc12)[C@@H]1CCOC1` [Compound 132], the IC50 in the test on GP2d cells (KRAS G12D) was below 100 nM; in test [1], 100 to 1000 nM; in test [2] it was 100 to 1000 nM; in test [3] it was 100 to 1000 nM; in test [4], 100 to 1000 nM.

Turning to `CN(c1nc(OC[C@@]23CCCN2C[C@H](F)C3)nc2c(F)c(-c3ccc(F)c4sc(N)c(C#N)c34)c(C(F)(F)F)cc12)[C@H]1CCOC1` [Compound 133], the IC50 with GP2d cells (KRAS G12D) was below 100 nM; in test [1], 100 to 1000 nM; in test [2] it was 100 to 1000 nM; in test [3], 100 to 1000 nM; in test [4], 100 to 1000 nM.

As for `C[C@@H]1COCCN1c1nc(OC[C@@]23CCCN2C[C@H](F)C3)nc2c(F)c(-c3ccc(F)c4sc(N)c(C#N)c34)c(C(F)(F)F)cc12` [Compound 134], the IC50 with GP2d cells (KRAS G12D) was below 100 nM; in test [1] it was 100 to 1000 nM; in test [2], 1000 to 10000 nM; in test [3], 100 to 1000 nM; in test [4], 100 to 1000 nM.

For `C[C@H]1COCCN1c1nc(OC[C@@]23CCCN2C[C@H](F)C3)nc2c(F)c(-c3ccc(F)c4sc(N)c(C#N)c34)c(C(F)(F)F)cc12` [Compound 135], the IC50 in the test with GP2d cells (KRAS G12D) was below 100 nM; in test [1], below 100 nM; in test [2], 100 to 1000 nM; in test [3] it was 100 to 1000 nM; in test [4] it was 100 to 1000 nM.

Turning to `N#CC[C@@H]1CN(c2nc(OC[C@@]34CCCN3C[C@H](F)C4)nc3c(F)c(-c4ccc(F)c5sc(N)c(C#N)c45)c(C(F)(F)F)cc23)CCO1` [Compound 136], the IC50 in the test with GP2d cells (KRAS G12D) is below 100 nM; in test [1] it was 100 to 1000 nM; in test [2], 1000 to 10000 nM; in test [3], 100 to 1000 nM; in test [4], 100 to 1000 nM.

On to `N#CC[C@H]1CN(c2nc(OC[C@@]34CCCN3C[C@H](F)C4)nc3c(F)c(-c4ccc(F)c5sc(N)c(C#N)c45)c(C(F)(F)F)cc23)CCO1` [Compound 137], for which the IC50 with GP2d cells (KRAS G12D) was below 100 nM; in test [1], 100 to 1000 nM; in test [2], 1000 to 10000 nM; in test [3] it was 100 to 1000 nM; in test [4], 100 to 1000 nM.

`C[C@@H]1CN(c2nc(OC[C@@]34CCCN3C[C@H](F)C4)nc3c(F)c(-c4ccc(F)c5sc(N)c(C#N)c45)c(C(F)(F)F)cc23)[C@@H](C)CO1` [Compound 140]: the IC50 was below 100 nM in the test on GP2d cells (KRAS G12D); 100 to 1000 nM in test [1]; 1000 to 10000 nM in test [2]; 1000 to 10000 nM in test [3]; 1000 to 10000 nM in test [4].

Take `C[C@@H]1CN(c2nc(OC[C@@]34CCCN3C[C@H](F)C4)nc3c(F)c(-c4ccc(F)c5sc(N)c(C#N)c45)c(C(F)(F)F)cc23)CCO1` [Compound 141]: the IC50 is below 100 nM in the test with GP2d cells (KRAS G12D); 100 to 1000 nM in test [1]; 1000 to 10000 nM in test [2]; 100 to 1000 nM in test [3]; 100 to 1000 nM in test [4].

With `C[C@H]1CN(c2nc(OC[C@@]34CCCN3C[C@H](F)C4)nc3c(F)c(-c4ccc(F)c5sc(N)c(C#N)c45)c(C(F)(F)F)cc23)CCO1` [Compound 142], the IC50 with GP2d cells (KRAS G12D) is below 100 nM; in test [1] it was 100 to 1000 nM; in test [2] it was 1000 to 10000 nM; in test [3], 100 to 1000 nM; in test [4], 100 to 1000 nM.

On to `C[C@@H]1CN(c2nc(OC[C@@]34CCCN3C[C@H](F)C4)nc3c(F)c(-c4ccc(F)c5sc(N)c(C#N)c45)c(C(F)(F)F)cc23)C[C@H](C)O1` [Compound 143], for which the IC50 with GP2d cells (KRAS G12D) lay in the range of 100 to 1000 nM; in test [1], 100 to 1000 nM; in test [2], 1000 to 10000 nM; in test [3], 1000 to 10000 nM; in test [4] it was 100 to 1000 nM.

For the compound `C[C@@H]1CN(c2nc(OC[C@@]34CCCN3C[C@H](F)C4)nc3c(F)c(-c4ccc(F)c5sc(N)c(C#N)c45)c(C(F)(F)F)cc23)C[C@@H](C)O1` [Compound 144], the half-maximal inhibitory concentration (IC50) was below 100 nM with GP2d cells (KRAS G12D); 100 to 1000 nM in test [1]; 1000 to 10000 nM in test [2]; 100 to 1000 nM in test [3]; 100 to 1000 nM in test [4].

Turning to `N#Cc1c(N)sc2c(F)ccc(-c3c(C(F)(F)F)cc4c(N5CC6CCC5CO6)nc(OC[C@@]56CCCN5C[C@H](F)C6)nc4c3F)c12` (stereo partly shown) [Compound 146], the IC50 in the test on GP2d cells (KRAS G12D) is below 100 nM; in test [1], 100 to 1000 nM; in test [2], 100 to 1000 nM; in test [3] it was 100 to 1000 nM; in test [4], 100 to 1000 nM.

With `N#Cc1c(N)sc2c(F)ccc(-c3c(C(F)(F)F)cc4c(N5CC6(COC6)C5)nc(OC[C@@]56CCCN5C[C@H](F)C6)nc4c3F)c12` [Compound 149], the IC50 in the test on GP2d cells (KRAS G12D) is below 100 nM; in test [1], 100 to 1000 nM; in test [2] it was 1000 to 10000 nM; in test [3], 1000 to 10000 nM; in test [4], 100 to 1000 nM.

Consider `N#Cc1c(N)sc2c(F)ccc(-c3c(C(F)(F)F)cc4c(N5CCC(F)(F)CC5)nc(OC[C@@]56CCCN5C[C@H](F)C6)nc4c3F)c12` [Compound 150], for which the IC50 was below 100 nM in the test on GP2d cells (KRAS G12D); 100 to 1000 nM in test [1]; 1000 to 10000 nM in test [2]; 100 to 1000 nM in test [3]; 100 to 1000 nM in test [4].

For the compound `N#Cc1c(N)sc2c(F)ccc(-c3c(C(F)(F)F)cc4c(N5CCC(F)CC5)nc(OC[C@@]56CCCN5C[C@H](F)C6)nc4c3F)c12` [Compound 151], the IC50 was below 100 nM in the test with GP2d cells (KRAS G12D); 100 to 1000 nM in test [1]; 100 to 1000 nM in test [2]; 100 to 1000 nM in test [3]; 100 to 1000 nM in test [4].

For the compound `CCN(CC)c1nc(OC[C@@]23CCCN2C[C@H](F)C3)nc2c(F)c(-c3ccc(F)c4sc(N)c(C#N)c34)c(C(F)(F)F)cc12` [Compound 152], the IC50 in the test with GP2d cells (KRAS G12D) is below 100 nM; in test [1], below 100 nM; in test [2], 100 to 1000 nM; in test [3], 100 to 1000 nM; in test [4], 100 to 1000 nM.

As to `CCN(c1nc(OC[C@@]23CCCN2C[C@H](F)C3)nc2c(F)c(-c3ccc(F)c4sc(N)c(C#N)c34)c(C(F)(F)F)cc12)C(C)C` [Compound 154], the IC50 in the test with GP2d cells (KRAS G12D) is below 100 nM; in test [1] it was 100 to 1000 nM; in test [2], 100 to 1000 nM; in test [3], 100 to 1000 nM; in test [4], 100 to 1000 nM.

As to `CCN(c1nc(OC[C@@]23CCCN2C[C@H](F)C3)nc2c(F)c(-c3ccc(F)c4sc(N)c(C#N)c34)c(C(F)(F)F)cc12)C1CC1` [Compound 155], the IC50 in the test with GP2d cells (KRAS G12D) was below 100 nM; in test [1], 100 to 1000 nM; in test [2] it was 1000 to 10000 nM; in test [3], 100 to 1000 nM; in test [4], 1000 to 10000 nM.

Consider `N#Cc1c(N)sc2c(F)ccc(-c3c(C(F)(F)F)cc4c(N5CCCC5)nc(OC[C@@]56CCCN5C[C@H](F)C6)nc4c3F)c12` [Compound 156], for which the IC50 in the test on GP2d cells (KRAS G12D) was below 100 nM; in test [1], 100 to 1000 nM; in test [2], 100 to 1000 nM; in test [3], 100 to 1000 nM; in test [4], 100 to 1000 nM.

Turning to `N#Cc1c(N)sc2c(F)ccc(-c3c(C(F)(F)F)cc4c(N5C[C@@H](F)[C@@H](F)C5)nc(OC[C@@]56CCCN5C[C@H](F)C6)nc4c3F)c12` [Compound 157], the IC50 with GP2d cells (KRAS G12D) is below 100 nM; in test [1] it was 100 to 1000 nM; in test [2], 1000 to 10000 nM; in test [3] it was 100 to 1000 nM; in test [4], 100 to 1000 nM.
